# Assay results published in patent US20240239801A1, “PYRIMIDO[5,4,D]PYRIMIDINE COMPOUNDS, COMPOSITIONS COMPRISING THEM AND USES THEREOF” (Université de Montréal, priority 2021, published 2024).
# System: RAS-mutant HCT-116 cells pERK/pMEK
# Test: Immunoblot analysis of pERK and pMEK
# Format: cell-based, human
# Conditions: FIG. 2, 1 h treatment
# Experimental: For immunoblotting analysis, 500,000 HCT-116 cells were plated in 1 mL of complete RPMI-1640 growth medium in 24-well flat-bottomed transparent dishes (Costar). Cells were maintained overnight at 37° C. under 5% CO2 before treatment with compounds' dilution series for one hour. Cells were then washed once in PBS and lized in 250 μL of Igepal Lysis Buffer (50 mM Tris-HCl pH 7.5, 150 mM NaCl, 1% Igepal-CA630, 1 mM EDTA, 10% Glycerol) supplemented with Leupeptin, Aprotinin, PMSF, phosphatase inhibitor cocktail (Sigma) and Na3VO4 at 4° C. for 15 minutes with gentle rocking. Cell extracts were then cleared by centrifugation at 20,000 g at 4° C. for 10 minutes. Cleared lysates were then transferred on ice in fresh tubes and then boiled in sample loading buffer (100 mM Tris-HCl pH 6.8, 4% SDS, 0.2% bromophenol blue, 20% glycerol, 200 mM β-mercaptoethanol) for 5 minutes prior to fractionation by SDS-PAGE and transfer to nitrocellulose membranes (PALL). […]
row,SMILES,paradoxical induction of pERK or pMEK signaling (immunoblot)
1,Nc1cccc2c1ncn2-c1ncc2ncnc(Nc3c(F)ccc(NS(=O)(=O)c4cccc(Cl)c4Cl)c3F)c2n1 [Example 80],does not induce paradoxical induction of pERK or pMEK signaling

# Molecular target: T1, BRAF (Homo sapiens, UniProt P15056)
# T1 construct: GST; purchased Millipore Sigma B4062-10UG
# T1 sequence (P15056 whole entry): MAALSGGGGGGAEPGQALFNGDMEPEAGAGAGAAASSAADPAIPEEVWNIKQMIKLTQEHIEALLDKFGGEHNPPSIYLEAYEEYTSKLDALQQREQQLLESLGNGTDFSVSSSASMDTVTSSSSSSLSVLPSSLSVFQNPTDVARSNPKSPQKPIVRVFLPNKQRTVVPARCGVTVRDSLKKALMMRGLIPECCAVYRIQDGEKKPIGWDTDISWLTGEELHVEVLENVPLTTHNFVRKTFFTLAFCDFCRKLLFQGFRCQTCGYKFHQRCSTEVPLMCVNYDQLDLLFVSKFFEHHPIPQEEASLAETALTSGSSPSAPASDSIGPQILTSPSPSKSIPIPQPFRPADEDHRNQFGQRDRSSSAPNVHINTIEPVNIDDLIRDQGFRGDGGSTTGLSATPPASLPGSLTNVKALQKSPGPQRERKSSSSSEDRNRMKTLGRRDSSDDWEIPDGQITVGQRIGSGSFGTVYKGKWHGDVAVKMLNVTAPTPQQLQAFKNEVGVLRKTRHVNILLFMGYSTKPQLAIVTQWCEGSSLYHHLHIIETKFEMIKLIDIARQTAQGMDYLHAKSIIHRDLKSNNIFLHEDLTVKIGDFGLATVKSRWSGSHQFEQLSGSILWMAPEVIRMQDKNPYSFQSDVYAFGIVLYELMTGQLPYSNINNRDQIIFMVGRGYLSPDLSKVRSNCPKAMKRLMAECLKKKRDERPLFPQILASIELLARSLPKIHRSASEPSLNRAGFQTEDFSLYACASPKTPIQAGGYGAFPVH
# Test: BRAF kinase activity assay (ADP-Glo)
# Format: biochemical
# Conditions: Table 3
# Procedure, shortened: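 GST-tagged BRAF (0.375 nM) was reacted with 75 nM kinase-dead MEK1 and 10 μM ATP for 2 h at 30 °C in HEPES pH 7.5 buffer with MgCl2, EDTA, Brij-35 and DTT. Compounds were tested at nine concentrations from 100 nM to 0.01 nM with 0.05% DMSO final. ADP-Glo luminescence gave % inhibition, and IC50 came from a four-parameter fit.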
row,SMILES,IC50 [nM]
1,Nc1cccc2c1ncn2-c1ncc2ncnc(Nc3c(F)ccc(NS(=O)(=O)c4cccc(Cl)c4Cl)c3F)c2n1 [Example 80],< 1
2,Cc1c(F)cccc1S(=O)(=O)Nc1ccc(F)c(Nc2ncnc3cnc(-n4cc(C(=O)N(C)Cc5ccncc5)c5ccccc54)nc23)c1F [Example 98],< 1
3,COc1ccc(S(=O)(=O)Nc2ccc(F)c(Nc3ncnc4cnc(-n5cnc6c(N)cccc65)nc34)c2F)c(C)c1Cl [Example 112],> 10
4,Cc1c(F)cccc1S(=O)(=O)Nc1ccc(F)c(Nc2ncnc3cnc(-n4cnc5c(-c6cccnc6)cccc54)nc23)c1F [Example 114],1 to 10
5,O=S(=O)(Nc1ccc(F)c(Nc2ncnc3cnc(-n4cnc5c(N6CCC7(CCCO7)CC6)cccc54)nc23)c1F)c1cccc(Cl)c1Cl [Example 129],> 10
